Data from patent US10806871B2, “Inhalable dry powders” (priority 2012, dated 2020).

experiment: not given; conditions: at 20 C; cited from earlier work

Row | Compound | solubility
1 | OC[C@H]1O[C@H](O[C@H]2O[C@H](CO)[C@@H](O)[C@H](O)[C@H]2O)[C@H](O)[C@@H](O)[C@@H]1O [trehalose] | 68.9 g per 100 g of water

same assay, conditions: cited from earlier work

Row | Compound | solubility in water
2 | OC[C@@H](O)[C@@H](O)[C@H](O)[C@H](O)CO [mannitol] | about 182 g/L

experiment: Solubility of therapeutic agents in water or ethanol; conditions: not given

Row | Compound | solubility in ethanol | solubility in water
3 | OCc1cc(C(O)CNCCCCCCOCCCCc2ccccc2)ccc1O (centres unmarked) [salmeterol xinafoate] | slightly soluble in ethanol | practically insoluble in water

experiment: not given; conditions: listing; cited from earlier work

Row | Compound | Bioavailability
4 | OC(CCN1CCCCC1)(c1ccccc1)C1CC2C=CC1C2 (centres unmarked) [Biperiden] | Low
5 | CN[C@H]1CC[C@@H](c2ccc(Cl)c(Cl)c2)c2ccccc21 [Sertraline] | Low
6 | C#C[C@]1(O)CC[C@H]2[C@@H]3CCC4=Cc5oncc5C[C@]4(C)[C@H]3CC[C@@]21C [Danazol] | Low
7 | COc1ccc2cc(CCC(C)=O)ccc2c1 [Nabumetone] | Low
8 | CC(=O)S[C@@H]1CC2=CC(=O)CC[C@]2(C)[C@H]2CC[C@@]3(C)[C@@H](CC[C@@]34CCC(=O)O4)[C@H]12 [Spironolactone] | Low
9 | CCn1cc(C(=O)O)c(=O)c2cc(F)c(N3CCNCC3)cc21 [Norfloxacin] | Low
10 | Nc1ccc(O)c(C(=O)O)c1 [Mesalamine] | Low
11 | O=[N+]([O-])O[C@H]1CO[C@H]2[C@@H]1OC[C@H]2O[N+](=O)[O-] [Isosorbide dinitrate] | Low
12 | OCCN1CCN(CCCN2c3ccccc3Sc3ccc(C(F)(F)F)cc32)CC1 [Fluphenazine] | Low
13 | CCCC1O[C@@H]2C[C@H]3[C@@H]4CCC5=CC(=O)C=C[C@]5(C)[C@H]4[C@@H](O)C[C@]3(C)[C@]2(C(=O)CO)O1 (some centres unmarked) [Budesonide] | Low
14 | COc1ccc(CCN2CCC(Nc3nc4ccccc4n3Cc3ccc(F)cc3)CC2)cc1 [Astemizol] | Low-moderate
15 | COc1cc(N)c(Cl)cc1C(=O)NC1CCN(CCCOc2ccc(F)cc2)CC1OC (centres unmarked) [Cisapride] | Low
16 | CC1CC(OC(=O)C(O)c2ccccc2)CC(C)(C)C1 (centres unmarked) [Cyclandelate] | Low
17 | CCCCCc1cc(O)c2c(c1)OC(C)(C)[C@@H]1CCC(C)=C[C@@H]21 [Dronabinol] | Low
18 | NC(N)=Nc1nc(CSCCC(N)=NS(N)(=O)=O)cs1 [Famotidine] | Low
19 | C[C@]12CC[C@H]3[C@@H](CCC4=CC(=O)CC[C@@]43C)[C@@H]1CC[C@@H]2O [Testosterone] | Low
20 | CC(=O)OC[C@H]1O[C@@H]([S-])[C@H](OC(C)=O)[C@@H](OC(C)=O)[C@@H]1OC(C)=O.CCP(CC)CC.[Au+] [Auranofin] | Low
21 | CCOC(=O)C1=C(C)NC(C)=C(C(=O)OC)C1c1cccc(Cl)c1Cl (centres unmarked) [Felodipine] | Low
22 | CN1CCC[C@@H]1CCO[C@](C)(c1ccccc1)c1ccc(Cl)cc1 [Clemastine] | Low
23 | COC(=O)C1=C(C)NC(C)=C(C(=O)OC(C)C)C1c1cccc2nonc12 (centres unmarked) [Isradipine] | Low
24 | OCCN1CCN(CCCN2c3ccccc3Sc3ccc(Cl)cc32)CC1 [Perphenazine] | Low

experiment: not given; conditions: listing, cf. PCT Publication WO/2004/062643; cited from earlier work

Row | Compound | Solubility In Water
25 | OC(CCN1CCCCC1)(c1ccccc1)C1CC2C=CC1C2 (centres unmarked) [Biperiden] | Sparingly soluble
26 | OCCN(CCO)c1nc(N2CCCCC2)c2nc(N(CCO)CCO)nc(N3CCCCC3)c2n1 [Dipyridamole] | Slightly
27 | NC(=O)N1c2ccccc2C=Cc2ccccc21 [Carbamazepine] | Insoluble
28 | COc1ccc2cc(CCC(C)=O)ccc2c1 [Nabumetone] | Insoluble
29 | CC(C)Cc1ccc(C(C)C(=O)O)cc1 (centres unmarked) [Ibuprofen] | Insoluble
30 | CC(=O)S[C@@H]1CC2=CC(=O)CC[C@]2(C)[C@H]2CC[C@@]3(C)[C@@H](CC[C@@]34CCC(=O)O4)[C@H]12 [Spironolactone] | Insoluble
31 | CN1CCN(C2=Nc3cc(Cl)ccc3Nc3ccccc32)CC1 [Clozapine] | Slightly
32 | CC(CCc1ccc(O)cc1)NCCc1ccc(O)c(O)c1 (centres unmarked) [Dobutamine] | Sparingly
33 | Cc1nc2n(c(=O)c1CCN1CCC(c3noc4cc(F)ccc34)CC1)CCCC2 [Risperidone] | Insoluble
34 | CC[C@H](C)C(=O)O[C@H]1C[C@@H](C)C=C2C=C[C@H](C)[C@H](CC[C@@H]3C[C@@H](O)CC(=O)O3)[C@H]21 [Lovastatin] | Insoluble
35 | CCC(C)n1ncn(-c2ccc(N3CCN(c4ccc(OCC5COC(Cn6cncn6)(c6ccc(Cl)cc6Cl)O5)cc4)CC3)cc2)c1=O (centres unmarked) [Itraconzole] | Insoluble
36 | CC[C@H]1OC(=O)[C@H](C)[C@@H](O[C@H]2C[C@@](C)(OC)[C@@H](O)[C@H](C)O2)[C@H](C)[C@@H](O[C@@H]2O[C@H](C)C[C@H](N(C)C)[C@H]2O)[C@](C)(OC)C[C@@H](C)C(=O)[C@H](C)[C@@H](O)[C@]1(C)O [Clarithromycin] | Insoluble
37 | COCCCC/C(=N\OCCN)c1ccc(C(F)(F)F)cc1 [Fluvoxamine] | Sparingly
38 | CN1C(C(=O)Nc2ccccn2)=C(O)c2ccccc2S1(=O)=O [Piroxicam] | Sparingly
39 | COc1ccc2[nH]c([S+]([O-])Cc3ncc(C)c(OC)c3C)nc2c1 (centres unmarked) [Omeprazole] | Slightly
40 | Cc1cccc(Nc2ccccc2C(=O)O)c1C [Mefenamic acid] | Slightly
41 | CCOC(=O)[C@H](CCc1ccccc1)N[C@@H](C)C(=O)N1[C@H](C(=O)O)C[C@@H]2CCC[C@@H]21 [Ramipril] | Insoluble
42 | C=CCC1(CC(C)C)C(=O)NC(=O)NC1=O [Butalbital] | Insoluble
43 | CCOC(=O)[C@H](CCc1ccccc1)N[C@@H](C)C(=O)N1CCC[C@H]1C(=O)O [Enalapril] | Sparingly
44 | OC(Cn1cncn1)(Cn1cncn1)c1ccc(F)cc1F [Fluconazole] | Slightly
45 | CO/N=C(\C(=O)N[C@@H]1C(=O)N2C(C(=O)O)=C(COC(C)=O)CS[C@H]12)c1csc(N)n1 [Cefotaxime] | Sparingly
46 | Cc1nnc2n1-c1ccc(Cl)cc1C(c1ccccc1)=NC2 [Alprazolam] | Insoluble
47 | CO[C@]12C[C@@H](COC(=O)c3cncc(Br)c3)CN(C)[C@@H]1Cc1cn(C)c3cccc2c13 [Nicergoline] | Insoluble
48 | CC(C)(C)NC(=O)[C@H]1CC[C@H]2[C@@H]3CC[C@H]4NC(=O)C=C[C@]4(C)[C@H]3CC[C@]12C [Finasteride] | Insoluble
49 | OCCN1CCN(CCCN2c3ccccc3Sc3ccc(C(F)(F)F)cc32)CC1 [Fluphenazine] | Insoluble
50 | COc1cc2nc(N3CCN(C(=O)C4COc5ccccc5O4)CC3)nc(N)c2cc1OC (centres unmarked) [Doxazosin] | Slightly
51 | CC(=O)O[C@H]1C(=O)[C@@]2(C)[C@H]([C@H](OC(=O)c3ccccc3)[C@]3(O)C[C@H](OC(=O)[C@H](O)[C@@H](NC(=O)c4ccccc4)c4ccccc4)C(C)=C1C3(C)C)[C@]1(OC(C)=O)CO[C@@H]1C[C@@H]2O [Paclitaxel] | Insoluble
52 | Cc1c(OCC(F)(F)F)ccnc1C[S+]([O-])c1nc2ccccc2[nH]1 (centres unmarked) [Lansoprazole] | Insoluble

Row | Compound | Solubility In Water
53 | Cn1cnc([N+](=O)[O-])c1Sc1ncnc2nc[nH]c12 [Azathioprine] | Insoluble
54 | O=C(O)Cc1ccccc1Nc1c(Cl)cccc1Cl [Diclofenac sodium] | Sparingly
55 | COc1ccc(CCN2CCC(Nc3nc4ccccc4n3Cc3ccc(F)cc3)CC2)cc1 [Astemizol] | Insoluble
56 | COc1cc(N)c(Cl)cc1C(=O)NC1CCN(CCCOc2ccc(F)cc2)CC1OC (centres unmarked) [Cisapride] | Insoluble
57 | COc1cc([C@@H]2c3cc4c(cc3[C@@H](O[C@@H]3O[C@@H]5CO[C@@H](C)O[C@H]5[C@H](O)[C@H]3O)[C@H]3COC(=O)[C@H]23)OCO4)cc(OC)c1O [Etoposide] | Very Slightly
58 | CCc1cccc2c3c([nH]c12)C(CC)(CC(=O)O)OCC3 (centres unmarked) [Etodolac] | Insoluble
59 | CCOC(=O)C1=C(COCCN)NC(C)=C(C(=O)OC)C1c1ccccc1Cl (centres unmarked) [Amlodipine] | Slightly
60 | CC(C(=O)O)c1ccc(-c2ccccc2)c(F)c1 (centres unmarked) [Flurbiprofen] | Slightly
61 | Cc1ncc2n1-c1ccc(Cl)cc1C(c1ccccc1F)=NC2 [Midazolam] | Insoluble
62 | CC(C)(C)c1ccc(C(O)CCCN2CCC(C(O)(c3ccccc3)c3ccccc3)CC2)cc1 (centres unmarked) [Terfenadine] | Slightly
63 | CN1CCCC(n2nc(Cc3ccc(Cl)cc3)c3ccccc3c2=O)CC1 (centres unmarked) [Azelastine] | Insoluble
64 | CC1CC(OC(=O)C(O)c2ccccc2)CC(C)(C)C1 (centres unmarked) [Cyclandelate] | Insoluble
65 | CCCCCc1cc(O)c2c(c1)OC(C)(C)[C@@H]1CCC(C)=C[C@@H]21 [Dronabinol] | Insoluble
66 | CC1=C(/C=C/C(C)=C/C=C/C(C)=C\C(=O)O)C(C)(C)CCC1 [Isotretinoin] | Insoluble
67 | Cc1ccc(-c2nc3ccc(C)cn3c2CC(=O)N(C)C)cc1 [Zolpidem] | Sparingly
68 | C[C@]12CC[C@H]3[C@@H](CCC4=CC(=O)CC[C@@]43C)[C@@H]1CC[C@@H]2O [Testosterone] | Insoluble
69 | CC(=O)OC[C@H]1O[C@@H]([S-])[C@H](OC(C)=O)[C@@H](OC(C)=O)[C@@H]1OC(C)=O.CCP(CC)CC.[Au+] [Auranofin] | Slightly soluble
70 | CN(C/C=C/C#CC(C)(C)C)Cc1cccc2ccccc12 [Terbinafine] | Slightly
71 | C[C@@H]1C[C@H]2[C@@H]3CCC4=CC(=O)C=C[C@]4(C)[C@@]3(Cl)[C@@H](O)C[C@]2(C)[C@@]1(O)C(=O)CCl [Mometasone] | Insoluble
72 | CCOC(=O)C1=C(C)NC(C)=C(C(=O)OC)C1c1cccc(Cl)c1Cl (centres unmarked) [Felodipine] | Insoluble
73 | CC(=O)N1CCN(c2ccc(OCC3COC(Cn4ccnc4)(c4ccc(Cl)cc4Cl)O3)cc2)CC1 (centres unmarked) [Ketoconazole] | Insoluble
74 | CCCC(CCC)C(=O)O [Divalproex] | Slightly
75 | CN1CCC[C@@H]1CCO[C@](C)(c1ccccc1)c1ccc(Cl)cc1 [Clemastine] | Slightly soluble
76 | Nc1nnc(-c2cccc(Cl)c2Cl)c(N)n1 [Lamotrigine] | Slightly
77 | C[C@@](Cc1ccc(O)c(O)c1)(NN)C(=O)O [Carbidopa] | Slightly
78 | COC(=O)C1=C(C)NC(C)=C(C(=O)OC(C)C)C1c1cccc2nonc12 (centres unmarked) [Isradipine] | Insoluble
79 | O=C1NC(=O)C(c2ccccc2)(c2ccccc2)N1 [Phenytoin] | Insoluble
